Data from patent EP0286825A2, “Use of 3'-fluro-3' deoxythymidine for the manufacture of a medicament for the treatment of virus infections” (Max-Planck-Gesellschaft zur Förderung der Wissenschaften …, priority 1987, dated 1988).
Read-outs that look alike come from different tables or passages of the source.

Key:
[1] = test system: HIV; assay: microbe, parasite or virus in culture; assay type: cell-based; conditions: for EC50: Human immunodeficiency virus 1, MT4, read-out: concentration of active material that protects the cells with half maximum action against the pathogenic effect of HIV
[2] = test system: HIV; assay type: cell-based
[3] = test system: peripheral blood lymphocytes; assay: Viability and cell number of the PHA stimulated peripheral blood lymphocytes; conditions: counts from thymidine incorporation
[4] = test system: HIV; assay type: cell-based; remark: listed apart in the source
[5] = test system: MT₄-cells; assay: Toxicity to MT4 cells in the absence of HIV, incorporation of thymidine; conditions: MT₄ cells without HIV, Fig. 5, compared with the other compounds

SMILES: Nc1nc2c(ncn2[C@H]2C[C@H](F)[C@@H](CO)O2)c(=O)[nH]1 [3ʹ-fluoro-2ʹ,3ʹ-dideoxyguanosine]
- EC50 ([1]; MT₄-cells, 1:40 dilution of the HIV parent liquid, thymidine incorporation): < 1.5 µg/mL
- in vitro therapeutic index ([1]; toxic concentration compared with antiviral concentration, MT₄ human cell line): approximately 400

SMILES: Cc1cn([C@H]2C[C@H](N=[N+]=[N-])[C@@H](CO)O2)c(=O)[nH]c1=O [AZT, azido-thymidine]
- %B/Bo ([2]; AZT 0.01 uM, day 4): 54.2%
- ng p24/ml ([2]; AZT 0.01 uM, day 4): 3.6 ng p24/ml
- %B/Bo ([2]; AZT 0.01 uM, day 7): 62.3%
- ng p24/ml ([2]; AZT 0.01 uM, day 7): 2.7 ng p24/ml
- %B/Bo ([2]; AZT 0.01 uM, day 11): 12.0%
- ng p24/ml ([2]; AZT 0.01 uM, day 11): 20 ng p24/ml
- %B/Bo ([2]; AZT 0.01 uM, day 14): 6.2%
- ng p24/ml ([2]; AZT 0.01 uM, day 14): 20 ng p24/ml
- %B/Bo ([2]; AZT 0.1 uM, day 4): 53.0%
- ng p24/ml ([2]; AZT 0.1 uM, day 4): 3.7 ng p24/ml
- %B/Bo ([2]; AZT 0.1 uM, day 7): 75.2%
- ng p24/ml ([2]; AZT 0.1 uM, day 7): 1.6 ng p24/ml
- %B/Bo ([2]; AZT 0.1 uM, day 11): 78.6%
- ng p24/ml ([2]; AZT 0.1 uM, day 11): 1.3 ng p24/ml
- %B/Bo ([2]; AZT 0.1 uM, day 14): 67.1%
- ng p24/ml ([2]; AZT 0.1 uM, day 14): 2.3 ng p24/ml
- %B/Bo ([2]; AZT 1 uM, day 4): 53.1%
- ng p24/ml ([2]; AZT 1 uM, day 4): 3.7 ng p24/ml
- %B/Bo ([2]; AZT 1 uM, day 7): 68.2%
- ng p24/ml ([2]; AZT 1 uM, day 7): 2.2 ng p24/ml
- %B/Bo ([2]; AZT 1 uM, day 11): 79.8%
- ng p24/ml ([2]; AZT 1 uM, day 11): 1.25 ng p24/ml
- %B/Bo ([2]; AZT 1 uM, day 14): 84.4%
- ng p24/ml ([2]; AZT 1 uM, day 14): 0.94 ng p24/ml
- toxicity against the PBL [3]: do not show toxicity
- CPM/1+06 CELLS ([4]; AZT 0.01UM, day 7): 1.78E+03 CPM/1+06 CELLS
- CPM/ml ([4]; AZT 0.01UM, day 7): 5.9E+03 CPM/ml
- CPM/1+06 CELLS ([4]; AZT 0.01UM, day 11): 7.19E+03 CPM/1+06 CELLS
- CPM/ml ([4]; AZT 0.01UM, day 11): 2.8E+04 CPM/ml
- CPM/1+06 CELLS ([4]; AZT 0.01UM, day 14): 2.41E+04 CPM/1+06 CELLS
- CPM/ml ([4]; AZT 0.01UM, day 14): 1.4E+05 CPM/ml
- CPM/1+06 CELLS ([4]; AZT 0.1UM, day 7): 8.64E+01 CPM/1+06 CELLS
- CPM/ml ([4]; AZT 0.1UM, day 7): 3.5E+02 CPM/ml
- CPM/1+06 CELLS ([4]; AZT 0.1UM, day 11): 2.49E+02 CPM/1+06 CELLS
- CPM/ml ([4]; AZT 0.1UM, day 11): 1.2E+03 CPM/ml
- CPM/1+06 CELLS ([4]; AZT 0.1UM, day 14): 9.78E+02 CPM/1+06 CELLS
- CPM/ml ([4]; AZT 0.1UM, day 14): 3.9E+03 CPM/ml
- CPM/1+06 CELLS ([4]; AZT 1UM, day 7): 7.66E+02 CPM/1+06 CELLS
- CPM/ml ([4]; AZT 1UM, day 7): 2.9E+03 CPM/ml
- CPM/ml ([4]; AZT 1UM, day 11): -8.1E+03 CPM/ml
- CPM/1+06 CELLS ([4]; AZT 1UM, day 14): 1.55E+02 CPM/1+06 CELLS
- CPM/ml ([4]; AZT 1UM, day 14): 5.7E+02 CPM/ml

SMILES: Cc1cn([C@H]2C[C@H](F)[C@@H](CO)O2)c(=O)[nH]c1=O
- EC50 [1]: < 0.002 µg/mL

SMILES: [N-]=[N+]=N[C@H]1C[C@H](n2cnc3c(O)ncnc32)O[C@@H]1CO [3ʹ-azido-2ʹ,3ʹ-dideoxyinosine]
- Toxicity [5]: higher
- rate of thymidine incorporation in the HIV infected cell line ([1]; Fig. 5): nearly equalled that of non-infected T₄ cell lines
